As a reminder, the EC50 is the concentration giving half of the maximal effect.

69 compounds from patent publication US20230092163A1, “COMPOUNDS AND COMPOSITIONS FOR TREATING CONDITIONS ASSOCIATED WITH STING ACTIVITY” (IFM Due, Inc., priority 2019, published 2023) can be followed below.

The assay addresses STING (Homo sapiens, UniProt Q86WV6, G230A/H232R/R293Q/R71H). Nature of the assay: STING reporter assay: THP1-Dual KO-IFNAR2 cells stimulated with 2′3′cGAMP, luciferase reporter activity. Type of assay: cell-based. To be noted: 15 μM 2′3′cGAMP, 24h. The procedure: STING pathway activation by the compounds described herein were measured using THP1-Dual™ cells (KO-IFNAR2).
THP1-Dual™ KO-IFNAR2 Cells (obtained from invivogen) were maintained in RPMI, 10% FCS, 5 ml P/S, 2 mM L-glut, 10 mM Hepes, and 1 mM sodium pyruvate. Compounds were spotted in empty 384 well tissue culture plates (Greiner 781182) by Echo for a final concentration of 0.0017-100 μM. Cells were plated into the TC plates at 40 μL per well, 2×10E6 cells/mL. For activation with STING ligand, 2′3′cGAMP (MW 718.38, obtained from Invivogen), was prepared in Optimem media.
The following solutions were prepared for each 1×384 plate: • Solution A: 2 mL Optimem with one of the following stimuli: • 60 uL of 10 mM 2′3′cGAMP ->150 μM stock • Solution B: 2 mL Optimem with 60 μL Lipofectamine 2000->Incubate 5 min at RT
2 mL of solution A and 2 ml Solution B was mixed and incubated for 20 min at room temperature (RT). 20 uL of transfection solution (A+B) was added on top of the plated cells, with a final 2′3′cGAMP concentration of 15 μM. The plates were then centrifuged immediately at 340 g for 1 minute, after which they were incubated at 37° C., 5% CO2, >98% humidity for 24h. Luciferase reporter activity was then measured. EC50 values were calculated by using standard methods known in the art.
Luciferase reporter assay: 10 μL of supernatant from the assay was transferred to white 384-plate with flat bottom and squared wells. One pouch of QUANTI-Luc™ Plus was dissolved in 25 mL of water. 100 μL of QLC Stabilizer per 25 mL of QUANTI-Luc™ Plus solution was added. 50 μL of QUANTI-Luc™ Plus/QLC solution per well is then added. Luminescence is measured on a Platereader (e.g., Spectramax I3X (Molecular Devices GF3637001)).
Luciferase reporter activity was then measured. EC50 values were calculated by using standard methods known in the art.
A general note: Reporter assays use an easily measured gene product as a stand-in for the process of interest.

Sequence of STING (Q86WV6 whole entry R71H/G230A/H232R/R293Q): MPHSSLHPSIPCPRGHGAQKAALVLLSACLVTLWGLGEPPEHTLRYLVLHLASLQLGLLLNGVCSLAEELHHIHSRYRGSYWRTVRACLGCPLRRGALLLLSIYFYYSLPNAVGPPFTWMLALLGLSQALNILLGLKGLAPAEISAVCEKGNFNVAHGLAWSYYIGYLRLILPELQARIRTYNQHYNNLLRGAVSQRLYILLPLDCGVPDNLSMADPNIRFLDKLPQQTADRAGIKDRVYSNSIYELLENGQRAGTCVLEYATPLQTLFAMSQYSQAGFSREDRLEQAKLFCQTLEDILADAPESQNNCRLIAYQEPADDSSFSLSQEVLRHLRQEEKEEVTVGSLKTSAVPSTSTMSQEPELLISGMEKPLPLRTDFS

On to `CC(C)(C)n1cc(NC(=O)Nc2ccc3cc[nH]c3c2)cn1` [Compound 218], for which the EC50 (numeric bounds) is more than 30 µM. `O=C(NCc1cnccn1)Nc1ccc2cc[nH]c2c1` [Compound 219]: the EC50 (numeric bounds) was more than 30 µM. Turning to `O=C(Nc1ccc2cc[nH]c2c1)Nc1cnccn1` [Compound 220], where the note is “numeric bounds”, the EC50 was more than 30 µM. On the same count and under the same terms, the result for `O=C(NCc1ccc(F)c(F)c1)Nc1ccc2cc[nH]c2c1` [Compound 221] reads more than 30 µM. On to `CC[C@H](NC(=O)Nc1ccc2cc[nH]c2c1)c1ccccc1` [Compound 222], for which the EC50 (class symbols) lay in the range of 5 to 100 µM.

For the compound `Cc1ccc(CNC(=O)Nc2ccc3cc[nH]c3c2)cc1C` [Compound 223], the EC50 (numeric bounds) is more than 30 µM. For `Cc1ccccc1CNC(=O)Nc1ccc2cc[nH]c2c1` [Compound 224], the EC50 (class symbols) lay in the range of 1 to 5 µM. Still for that read-out and setting: the result for `Cc1cccc(CNC(=O)Nc2ccc3cc[nH]c3c2)c1` [Compound 225] reads 5 to 100 µM; that for `O=C(Nc1ccc(Cl)c(F)c1)Nc1ccc2cc[nH]c2c1` [Compound 226], 0.2 to 1 µM; that for `Cc1cc(NC(=O)Nc2ccc3cc[nH]c3c2)ccc1C#N` [Compound 227], 0.2 to 1 µM. Compound `O=C(Nc1cccc(OC(F)F)c1)Nc1ccc2cc[nH]c2c1` [Compound 228] displayed a half-maximal effective concentration (EC50) (class symbols) of 1 to 5 µM.

With `CCc1ccccc1NC(=O)Nc1ccc2cc[nH]c2c1` [Compound 229], the EC50 (numeric bounds) is more than 30 µM.

Consider `O=C(Nc1ccc2cc[nH]c2c1)Nc1ccccc1F` [Compound 230], for which, for the setting “numeric bounds”, the EC50 is more than 30 µM.

Compound `Cc1ccccc1NC(=O)Nc1ccc2cc[nH]c2c1` [Compound 231] had an EC50 (numeric bounds) of more than 30 µM. Take `O=C(Nc1cccc(S(F)(F)(F)(F)F)c1)Nc1ccc2cc[nH]c2c1` [Compound 233]: for the setting “class symbols”, the half-maximal effective concentration (EC50) lay in the range of 0.2 to 1 µM.

Where the note is “class symbols”, `CC(C)c1ccc(NC(=O)Nc2ccc3cc[nH]c3c2)cc1` [Compound 234] yielded an EC50 of 0.2 to 1 µM. Same read-out and setting: the result for `CCCCCCCCCCCCCCCCNC(=O)Nc1ccc2cc[nH]c2c1` [Compound 235] reads 0.2 to 1 µM; that for `CCCCCCCCCCCCCCNC(=O)Nc1ccc2cc[nH]c2c1` [Compound 236], 0.2 to 1 µM. The same measure, in the same setting: to `CCCCCCCCc1ccc(NC(=O)Nc2ccc3cc[nH]c3c2)cc1` [Compound 237] belongs 0.2 to 1 µM; to `O=C(Nc1ccc(C2CC(F)(F)C2)c(F)c1)Nc1ccc2cc[nH]c2c1` [Compound 240], 0.2 to 1 µM. On the same count and under the same terms, the result for `O=C(Nc1ccc(C(F)(F)F)cc1)Nc1ccc2c(F)c[nH]c2c1` [Compound 242, 3-(3-fluoro-1H-indol-6-yl)-1-[4-(trifluoromethyl)phenyl]urea] reads 0.2 to 1 µM; that for `O=C(Nc1ccc2cc[nH]c2c1)NC1CCC2(CCCCC2)OC1` (stereo not drawn) [Compound 243], 5 to 100 µM. On to `O=C(Nc1ccc(C(F)(F)F)c(Cl)c1)Nc1ccc2cc[nH]c2c1` [Compound 244], for which the EC50 (class symbols) lay within 0.2 to 1 µM. Still for that read-out and setting: the result for `N#Cc1cc(NC(=O)Nc2ccc(C(F)(F)F)cc2)cc2[nH]ccc12` [Compound 245] reads 0.04 to 0.2 µM; that for `O=C(Nc1ccc(C(F)(F)F)cc1)Nc1cc(F)c2cc[nH]c2c1` [Compound 246], 0.2 to 1 µM; that for `O=C(Nc1ccc(N2CCC(F)(F)CC2)nc1)Nc1ccc2cc[nH]c2c1` [Compound 247], 1 to 5 µM.

Where the note is “class symbols”, `O=C(Nc1ccc(OC2CC(F)(F)C2)nc1)Nc1ccc2cc[nH]c2c1` [Compound 248] displayed an EC50 of 0.2 to 1 µM.

The compound `O=C(Nc1ccc2cc[nH]c2c1)Nc1ccc(N2CCC(F)(F)CC2)cn1` [Compound 249] returned an EC50 (class symbols) of 1 to 5 µM. On the same count and under the same terms, the result for `O=C(Nc1ccnc(C(F)(F)F)c1)Nc1ccc2cc[nH]c2c1` [Compound 250] reads 1 to 5 µM; that for `O=C(Nc1ccc(C(F)(F)F)cc1)Nc1cc(Cl)c2cc[nH]c2c1` [Compound 251], 0.04 to 0.2 µM; that for `O=C(Nc1cc(F)cc(C(F)(F)F)c1)Nc1ccc2cc[nH]c2c1` [Compound 252], 0.04 to 0.2 µM. Still for that read-out and setting: the result for `O=C(Nc1ccc(C(F)(F)F)c(F)c1)Nc1ccc2cc[nH]c2c1` [Compound 253] reads 0.04 to 0.2 µM. Still for that read-out and setting: to `O=C(Nc1cc(Cl)cc(C(F)(F)F)c1)Nc1ccc2cc[nH]c2c1` [Compound 254] belongs 0.2 to 1 µM; to `N#Cc1cc2ccc(NC(=O)Nc3ccc(C(F)(F)F)cc3)cc2[nH]1` [Compound 255], 5 to 100 µM.

Turning to `O=C(Nc1ccc(C(F)(F)F)cc1)Nc1ccc2cc(-c3ccccc3)[nH]c2c1` [Compound 256], the EC50 (numeric bounds) was more than 100 µM. In turn, `CC(=O)n1ccc2ccc(NC(=O)Nc3ccc(C(F)(F)F)cc3)cc21` [Compound 257] had a concentration for a half-maximal effect (EC50) (class symbols) of 1 to 5 µM. For the setting “class symbols”, `N#Cc1c[nH]c2cc(NC(=O)Nc3ccc(C(F)(F)F)cc3)ccc12` [Compound 258, 3-(3-cyano-1H-indol-6-yl)-1-[4-(trifluoromethyl)phenyl]urea] returned a half-maximal effective concentration (EC50) of 0.2 to 1 µM. On to `Cc1c(NC(=O)Nc2ccc(C(F)(F)F)cc2)ccc2cc[nH]c12` [Compound 259], for which, where the note is “numeric bounds”, the half-maximal effective concentration (EC50) is more than 30 µM.

In turn, `CCCCC1CCC(NC(=O)Nc2ccc3cc(Cl)[nH]c3c2)CC1` (stereo not drawn) [Compound 260] showed a half-maximal effective concentration (EC50) (class symbols) of 5 to 100 µM. `CCc1ccc(NC(=O)Nc2ccc3c(NC(=O)Nc4ccc(CC)cc4)c[nH]c3c2)cc1` [Compound 261]: the concentration giving a half-maximal response (EC50) (numeric bounds) is more than 100 µM. Consider `O=C(Nc1ccc(C(F)(F)F)cc1)Nc1cc2[nH]ccc2cc1F` [Compound 262], for which, under “class symbols”, the concentration for a half-maximal effect (EC50) was in the range of 5 to 100 µM. On the same count and under the same terms, to `O=C(Nc1ccc(C(F)(F)F)cc1)Nc1ccc2c3c([nH]c2c1)CCCC3` [Compound 263] belongs 5 to 100 µM. As for `CN(C(=O)Nc1ccc(C(F)(F)F)cc1)c1ccc2cc[nH]c2c1` [Compound 264], the EC50 (class symbols) is 5 to 100 µM.

Consider `Cc1cc2cc[nH]c2cc1NC(=O)Nc1ccc(C(F)(F)F)cc1` [Compound 265], for which the EC50 (class symbols) lay in the range of 5 to 100 µM. `CCCCC1CCC(NC(=O)Nc2ccc3cc(C)[nH]c3c2)CC1` (stereo not drawn) [Compound 266] displayed an EC50 (numeric bounds) of more than 100 µM. Still for that read-out and setting: to `CN(C(=O)Nc1ccc2cc[nH]c2c1)c1ccc(C(F)(F)F)cc1` [Compound 267] belongs more than 67.1 µM.

Consider `Cn1ccc2ccc(NC(=O)Nc3ccc(C(F)(F)F)cc3)cc21` [Compound 268], for which the EC50 (class symbols) fell in the range of 5 to 100 µM. Still for that read-out and setting: to `O=C(Nc1ccc2cc[nH]c2c1)Nc1ccc(C(F)(F)F)cn1` [Compound 269] belongs 0.2 to 1 µM; to `CCCCc1cccc(NC(=O)Nc2ccc3cc[nH]c3c2)c1` [Compound 270], 0.04 to 0.2 µM. The same measure, in the same setting: to `CCCCC1CCC(NC(=O)Nc2ccc3cc[nH]c3c2)CC1` (stereo not drawn) [Compound 271] belongs 0.2 to 1 µM; to `O=C(Nc1cccc(C(F)(F)F)c1)Nc1ccc2cc[nH]c2c1` [Compound 272], 0.2 to 1 µM. Same read-out and setting: the result for `CCCCc1ccc(NC(=O)Nc2ccc3cc[nH]c3c2)cc1` [Compound 273] reads 0.2 to 1 µM. `O=C(NCC1(c2cccc(Cl)c2)CCOCC1)Nc1ccc2[nH]ccc2c1` [Compound 274] showed an EC50 (numeric bounds) of more than 30 µM. Where the note is “class symbols”, `CNC(=O)Nc1ccc2[nH]cc(NC(=O)Nc3ccc(C(F)(F)F)cc3)c2c1` [Compound 275] came in with an EC50 of 1 to 5 µM. Consider `N#Cc1ccc(CNC(=O)Nc2ccc3[nH]ccc3c2)c(C(F)(F)F)c1` [Compound 276], for which the 50% effective concentration (EC50) (numeric bounds) was more than 30 µM. In the case of `O=C(Nc1ccc(Oc2c(F)cccc2F)cc1)Nc1ccc2[nH]ccc2c1` [Compound 278], the EC50 (numeric bounds) was more than 30 µM.

Take `CC(C)c1ccc(-c2nnc(NC(=O)Nc3ccc4[nH]ccc4c3)s2)cc1` [Compound 279]: for the setting “class symbols”, the EC50 is 5 to 100 µM. On to `O=C(Nc1cccc(S(=O)(=O)N2CCCC2)c1)Nc1ccc2[nH]ccc2c1` [Compound 282], for which the EC50 (numeric bounds) is more than 30 µM. Where the note is “numeric bounds”, `O=C(Nc1ccc2[nH]ccc2c1)Nc1ccc2[nH]ccc2c1` [Compound 283] displayed an EC50 of more than 30 µM. Same read-out and setting: the result for `O=C(Nc1ccc(S(=O)(=O)N2CCCC2)cc1)Nc1ccc2[nH]ccc2c1` [Compound 284] reads more than 30 µM; that for `O=C(Nc1cnc2cc(C(F)(F)F)ccc2c1)Nc1ccc2[nH]ccc2c1` [Compound 285], more than 30 µM.

In turn, `O=C(Nc1cnc2ccc(C(F)(F)F)cc2c1)Nc1ccc2[nH]ccc2c1` [Compound 286] registered a half-maximal effective concentration (EC50) (numeric bounds) of more than 30 µM. Same read-out and setting: to `O=C(Nc1ccc2nc(C(F)(F)F)ccc2c1)Nc1ccc2[nH]ccc2c1` [Compound 287] belongs more than 30 µM; to `CC(Cc1cccc(C(F)(F)F)c1)NC(=O)Nc1ccc2[nH]ccc2c1` (stereo not drawn) [Compound 288], more than 30 µM.

Regarding `O=C(Nc1ccc(S(=O)(=O)C(F)(F)F)cc1)Nc1ccc2[nH]ccc2c1` [Compound 289], the EC50 (class symbols) is 5 to 100 µM. For the setting “numeric bounds”, `O=C(NCCc1ncc(C(F)(F)F)cc1Cl)Nc1ccc2[nH]ccc2c1` [Compound 290] yielded an EC50 of more than 30 µM.

The compound `O=C(Nc1ccc(S(F)(F)(F)(F)F)cc1)Nc1ccc2[nH]ccc2c1` [Compound 291] yielded a 50% effective concentration (EC50) (class symbols) of 1 to 5 µM.

Consider `CN(C)S(=O)(=O)c1ccc(NC(=O)Nc2ccc3[nH]ccc3c2)cc1` [Compound 292], for which, for the setting “numeric bounds”, the concentration for a half-maximal effect (EC50) was more than 30 µM. The same measure, in the same setting: the result for `O=C(Nc1cc(F)c(N2CCC(F)(F)CC2)c(F)c1)Nc1ccc2[nH]ccc2c1` [Compound 293] reads more than 30 µM.
